The values that follow come from PMC12084349 (Communications Biology, 2025).

One assay concerns the target Hsp90-NTD (Homo sapiens, UniProt P07900). The experiment in a line: [1H, […]] HSQC NMR titration. The assay is classed as binding.
A further assay concerns the target Aha1 (Homo sapiens, UniProt O95433). The experiment in a line: ITC. In kind it is binding.

Sequence of Aha1 (O95433 204-338): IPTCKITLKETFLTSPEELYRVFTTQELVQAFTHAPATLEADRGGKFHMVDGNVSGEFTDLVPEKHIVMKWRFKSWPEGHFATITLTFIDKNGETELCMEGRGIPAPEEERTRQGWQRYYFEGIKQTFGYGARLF

Consider `CCc1oc2ccccc2c1C(=O)c1cc(Br)c(O)c(Br)c1` [Benzbromarone], for which the values for the Kd at Hsp90-NTD and at Aha1 were 15.1 ± 3.86 µM and 0.84 ± 0.35 µM, respectively.
